Data from publication PMC7044277 (Nature Communications, 2020).
“And” between values parts separate entries of the source, which are not always exact repeats. Identical values can stand only once.

Tests used:
[1] = target: DRD3 F1063.28A (Homo sapiens, UniProt P35462, F106A); experiment: cell-based; type: cell-based
[2] = target: T1, 320 non-olfactory GPCRs (Homo sapiens, UniProt P13945); type: cell-based;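 also: compound tested at 1 µM final concentration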
T1 construct: expressed in transfected cells; host or cells: HTLA cells
T1 sequence (P13945 whole entry): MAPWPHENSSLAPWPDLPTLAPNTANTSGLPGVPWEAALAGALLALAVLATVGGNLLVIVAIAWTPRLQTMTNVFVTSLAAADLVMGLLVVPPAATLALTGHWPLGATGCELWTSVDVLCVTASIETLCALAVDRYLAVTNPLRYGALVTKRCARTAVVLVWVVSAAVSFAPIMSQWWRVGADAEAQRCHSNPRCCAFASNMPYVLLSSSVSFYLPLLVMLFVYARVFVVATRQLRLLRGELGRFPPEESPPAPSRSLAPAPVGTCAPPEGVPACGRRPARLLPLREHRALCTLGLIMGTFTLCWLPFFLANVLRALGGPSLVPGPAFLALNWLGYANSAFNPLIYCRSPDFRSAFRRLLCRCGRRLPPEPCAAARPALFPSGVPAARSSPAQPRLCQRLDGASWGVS

Chain of DRD3 F1063.28A (P35462 whole entry F106A): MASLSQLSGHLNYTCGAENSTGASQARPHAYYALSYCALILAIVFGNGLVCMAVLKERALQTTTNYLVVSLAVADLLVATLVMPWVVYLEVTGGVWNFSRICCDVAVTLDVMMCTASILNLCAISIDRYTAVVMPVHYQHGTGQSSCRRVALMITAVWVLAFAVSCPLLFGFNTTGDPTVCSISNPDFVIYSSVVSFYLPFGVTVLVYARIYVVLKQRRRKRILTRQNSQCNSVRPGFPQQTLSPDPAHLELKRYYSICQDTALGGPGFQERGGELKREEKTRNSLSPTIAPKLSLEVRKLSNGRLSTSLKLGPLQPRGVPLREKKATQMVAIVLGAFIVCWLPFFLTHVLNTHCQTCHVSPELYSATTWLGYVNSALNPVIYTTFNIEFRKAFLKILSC

## CCOc1cccc2cc(C(C)NCC3(O)CCCCC3)oc12 (centres unmarked) [O4LE6]
[1]
  EC50: > 10 µM
[2]
  Fold of Basal: 1.471 and 1.539 and 1.208 and 0.8362
